Columns and labels:
[1] = tested on: J553x(HIIIAxA188) null and transgenic corn; assay: Fipronil/Pyraclostrobin study, initial trial: seed treatment, greenhouse growth, LemnaTec Scanalyzer imaging and harvest; type: in vivo, maize (Zea Mays L.); details: for Internode 1 length / Internode 2 length / Internode 3 length: seed treatment; for Fresh Weight: hand-collected
Procedure: (§1) J553x(HIIIAxA188) null and transgenic corn seeds of the T2 generation were treated with deionized water (Blank), 200 grams fipronil, 10 grams pyraclostrobin (F500), and 200 grams fipronil+10 grams pyraclostrobin; all formulation rates were grams/100 kg seed. Every formulation was applied to approximately 80 seeds. The formulation was pipetted into a 125 ml flask along the sides and bottom of the flask before adding the seeds and shaking the flask for 30 seconds. The coated seeds were then removed from the flask and placed in a plastic dish for drying.
(§2) Seventy-five 3-L pots per treatment (Blank, fipronil, pyraclostrobin, and fipronil+pyraclostrobin) were filled with potting media, labeled with colored stakes, and given a unique barcode. One seed per pot was planted at a depth of approximately 2 cm and covered with media. The media was lightly watered to imbibe the seeds, while allowing for ample oxygen exchange and so that the chemical coatings on the seeds remained intact. After planting, the pots were randomly distributed into three replicate blocks (1 bench=1 block), each with 25 plants of every treatment.
(§3) The plants were maintained in a greenhouse under optimal, well-watered conditions (80-90% field capacity) upon emergence. Supplemental nutrients were administered every third day during watering. The greenhouse temperature was maintained at 30° C., relative humidity at 75%, and light at 350 μmol m^−2s^−1, in a 15-hour day/9-hour night photoperiod. Supplemental lighting was provided using metal-halide lights. Once per week, the pots were randomly mixed within each block.
(§4) On day 21, the plants were imaged to collect the phenotypic data as described in the Imaging Procedures section. Leaves were sampled for transgene copy number on day 25 to identify the null and transgenic plants. On day 28, the plants were imaged and then harvested to collect fresh weight. The presence of the transgene was determined by the Taqman molecular analysis technique. Differences in the phenotypic data collected during the imaging process and in fresh weight among the four treatments and between the null and transgenic plants were assessed. The chemical by transgenic interactions were determined.
(§5) Imaging of the plants was facilitated using a LemnaTec Scanalyzer (Würselen, Germany), which includes a conveyor belt, an imaging station, a watering station, and computers for collecting, processing, and storing the image data. The cameras have a resolution of 1280×960 pixels and operate in 24-bit color.
(§6) The plants were manually transferred by block onto the conveyor system of the scanalyzer. Each plant was then moved through the imager automatically. At the imaging station, cameras collected the top view image and two side view images. The side view images were the transverse view and the view parallel with the plane of the plant.
(§7) As described in the formula (see Appendix A), the scanalyzer calculates plant volume as a number of pixels. To assign a physiologically meaningful value to the volume measurements, a separate experiment was conducted. The plants were scanned with the scanalyzer then harvested. The plant material was placed into a graduated cylinder filled to a known volume with water. The difference between the water plus plant material and water alone provided a known plant volume in mL.
(§8) Using the LemnaTec scanalyzer, we collected stem width; stalk volume; top, transverse, and parallel view plant areas; top, transverse, and parallel view green and yellow pixel counts; stem length; leaf angles and internode lengths through leaf 5; plant width and height; total leaf length; and total plant length.
(§9) Fresh Weight—A measurement of the fresh weight of the plant in grams. Hand-collected fresh weight is measured by harvesting the plant and weighing it on a balance. LemnaTec fresh weight is calculated by the scanalyzer based on plant volume and plant age. The zoom angles of the camera lenses are normalized using a calibration table. […]

[2] = tested on: J553x(HIIIAxA188) null and transgenic corn; assay: Fipronil/Pyraclostrobin study, second trial: seed treatment, greenhouse growth, LemnaTec Scanalyzer imaging; type: in vivo, maize (Zea Mays L.)
Procedure: as §1, §2, §3, §4, §5, §6, §7, §8, §9

[3] = Fipronil-Worldwide technical Bulletin, BASF; cited from earlier work
[4] = initial trial, relative to all other treatments

## N#Cc1nn(-c2c(Cl)cc(C(F)(F)F)cc2Cl)c(N)c1[S+]([O-])C(F)(F)F (stereo not drawn) [Fipronil, 5-amino-1-(2,6-dichloro-α,α,α-trifluoro-p-tolyl)-4-trifluoromethylsulfinylpyrazole-3-carbonitrile]
[1]; Avg
  # Fully Expanded Leaves: 3.0
  Leaf Angle 0: 63.2 degrees
  Leaf Angle 1: 58.9 degrees
  Plant Volume: 6.70E+06 pixels
  Stem Length: 108.8 cm
  stalk area from the transverse view, Pixel Count: 4910 pixels
  Fresh Weight: 162.8 grams
[1]; Avg of null and transgenic
  Internode 1 length: 35.9 cm
  Internode 2 length: 44.2 cm
  Internode 3 length: 40.0 cm
[1]; Null plants
  # Fully Expanded Leaves: 3.1
  Leaf Angle 0: 57.5 degrees
  Leaf Angle 1: 63.6 degrees
  Plant Volume: 6.53E+06 pixels
  Stem Length: 110.4 cm
  stalk area from the transverse view, Pixel Count: 5081 pixels
  Internode 1 length: 35.3 cm
  Internode 2 length: 45.9 cm
  Internode 3 length: 42.4 cm
  Fresh Weight: 160.9 grams
[1]; Trans (transgenic) plants
  Internode 1 length: 36.6 cm
  Internode 2 length: 42.5 cm
  Internode 3 length: 37.7 cm
[1]; Trans plants
  # Fully Expanded Leaves: 3.0
  Leaf Angle 0: 68.7 degrees
  Leaf Angle 1: 54.4 degrees
  Plant Volume: 6.86E+06 pixels
  Stem Length: 107.1 cm
  stalk area from the transverse view, Pixel Count: 4744 pixels
  Fresh Weight: 164.7 grams
[1]; initial trial, in general
  fresh mass (in words): enhanced
  plant height (in words): enhanced
  plant volume (in words): enhanced
  plant width (in words): enhanced
[1]; [4]
  greenness (in words): enhanced
  internode length (in words): enhanced
  leaf angle (in words): enhanced
  plant area (in words): enhanced
[1]; parallel view, Avg
  Dark Green Count: 16389.5 pixels
  Medium Green Count: 5662.4 pixels
  Plant Area: 23760.8 pixels
  Yellow Count: 1708.9 pixels
[1]; parallel view, Null plants
  Dark Green Count: 15955.0 pixels
  Medium Green Count: 5470.9 pixels
  Plant Area: 23035.0 pixels
  Yellow Count: 1609.1 pixels
[1]; parallel view, Trans plants
  Dark Green Count: 16812.3 pixels
  Medium Green Count: 5848.7 pixels
  Plant Area: 24467.0 pixels
  Yellow Count: 1806.0 pixels
[1]; top view, Avg
  Medium Green Count: 17465 pixels
[1]; top view, Null plants
  Medium Green Count: 17038 pixels
[1]; top view, Trans plants
  Medium Green Count: 17881 pixels
[1]; transverse view, Avg
  Medium Green Count: 9089.0 pixels
  Yellow Count: 3363.6 pixels
[1]; transverse view, Null plants
  Medium Green Count: 9132.8 pixels
  Yellow Count: 3268.7 pixels
[1]; transverse view, Trans plants
  Medium Green Count: 9046.4 pixels
  Yellow Count: 3455.9 pixels
[2]; Avg
  Broad Side Drk Grn: 25067.65 pixels
  Broad Side Plnt Area: 35413.12 pixels
  Calc Fresh Weight: 100.77 g
  Narrow Side Drk Grn: 25969.34 pix
  Plant Volume: 9.19 M pixels
  Top Drk Grn: 57132.20 pixels
[2]; Null plants
  Broad Side Drk Grn: 26176.97 pixels
  Broad Side Plnt Area: 36398.18 pixels
  Calc Fresh Weight: 99.88 g
  Narrow Side Drk Grn: 24703.55 pix
  Plant Volume: 8.89 M pixels
  Top Drk Grn: 56608.71 pixels
[2]; Trans plants
  Broad Side Drk Grn: 23958.33 pixels
  Broad Side Plnt Area: 34428.06 pixels
  Calc Fresh Weight: 101.65 g
  Narrow Side Drk Grn: 27235.14 pix
  Plant Volume: 9.50 M pixels
  Top Drk Grn: 57655.69 pixels
[3]
  reported plant performance effects: enhance overall root system and root hair development, increase tiller number and productivity, increase photosynthetic capacity (plant greenness), increase leaf area and plant height, stimulate early flowering and grain maturation leading to significant increases in yield

Source: US20100093715A1, “Plant productivity enhancement by combining chemical agents with transgenic modifications” (BASF SE, priority 2007, published 2010)
